The values below come from patent US20050288360A1, “Nutraceutical compositions comprising epigallocatechin gallate and raspberry ketone” (priority 2002, published 2005).

One assay relates to C57BLKS/J db/db mice. In words: 5-week body weight study in db/db mice. The class given is in vivo. The following applies: for Body weight, Initial: baseline, male db/db mice, standard rodent food; for Body weight, Initial / Body weight, Week 2 / Body weight, Week 4: feed-ad-mix 1400 mg/kg BW/day each, group mean; for Body weight decrease, Week 2 / Body weight decrease, Week 4: decrease in comparison to control group, 1400 mg/kg BW/day each. On the procedure:
The efficacy of the combination of EGCG and RK as well as of both compounds alone on body weight and adiposity was tested in a 5-week study in C57BLKS/J db/db mice (n=8-9/group). This model of late type 2 diabetes with severe hyperglycemia and obesity is widely used to determine the efficacy of anti-diabetic and anti-obesity compounds. Male db/db mice were obtained from Jackson Laboratory (Bar Harbor, Me., USA). Adult mice aged 8 weeks were used in the experiment. Mice were housed individually in plastic cages with bedding and allowed free access to standard rodent food and tap water. The animal rooms were controlled for temperature (24° C.), humidity (55%), and light (12-h light-dark cycle). The animals were randomized into four groups. EGCG and RK were administered as feed-ad-mix. Corn cellulose (2% of diet) served as a carrier substance for EGCG and RK as well as a placebo when used alone. Group 1 received placebo, group 2 received EGCG at a dose of 1400 mg/kg BW/day, group 3 received RI<at a dose of 1400 mg/kg BW/day, and group 4 received the combination of EGCG and RK at a doses of 1400 and 1400 mg/kg BW/day, respectively. Body weight and food intake were determined over the course of the study. All data are expressed as means for animals in each diet group. There was no difference in food intake between the groups over the study period. The decrease in body weight in comparison to the control group caused by each treatment was calculated (data are shown in Table 4). The expected treatment effect of the combined therapy with EGCG and RK was calculated by the sum of the effects exerted by monotherapy with EGCG or RK. The synergistic factor (SF) is defined as the quotient of the observed effect and the expected effect. If SF>1, a synergistic effect was exerted by the combined treatment.

Assay [1] deals with C57BL6/J mice fed a high fat, high sucrose diet. In words: 4-week body weight study in diet-induced obese mice. The class given is in vivo. The following applies: for Body weight compared to control mice (in words): 4 week study period; for Body weight compared to control mice (in words) / Body weight, Initial / Body weight, Week 2 / Body weight, Week 4: high fat high sucrose diet; for Body weight, Initial: baseline, male C57BL6/J mice; for Body weight, Initial / Body weight, Week 2 / Body weight, Week 4: feed-ad-mix 1400 mg/kg BW/day each, group mean; for Body weight decrease, Week 2 / Body weight decrease, Week 4: decrease in comparison to control group, 1400 mg/kg BW/day each. The method, then: The efficacy of the combination of EGCG and RK as well as of both compounds alone on body weight and adiposity was tested in a 4-week study in C57BL6/J mice fed a high fat, high sucrose diet (n=8-11/group). This model of diet-induced obesity and early type 2 diabetes is widely used to determine the efficacy of anti-obesity compounds. Male C57BL6/J mice were obtained from Jackson Laboratory (Bar Harbor, Me., USA). Adult mice aged […] were used in the experiment. Mice were housed individually in plastic cages with bedding and allowed free access to a high fat, high sucrose mouse diet (Kliba # 2154, Klibamuehle, Kaiseraugst, Switzerland) and tap water. The animal rooms were controlled for temperature (24° C.), humidity (55%), and light (12-h light-dark cycle). The animals were randomized into four groups. EGCG and RK were administered as feed-ad-mix. Corn cellulose (2% of diet) served as a carrier substance for EGCG and RK as well as a placebo when used alone. Group 1 received placebo, group 2 received EGCG at a dose of 1400 mg/kg body weight (BW)/day, group 3 received RK at a dose of 1400 mg/kg BW/day, and group 4 received the combination of EGCG and RK at a doses of 1400 and 1400 mg/kg BW/day, respectively. Body weight and food intake were determined over the course of the study. All data are expressed as means for animals in each diet group. There was no difference in food intake between the groups over the study period. […] The decrease in body weight in comparison to the control group caused by each treatment was calculated (data are shown in Table 2). The expected treatment effect of the combined therapy with EGCG and RK was calculated by the sum of the effects exerted by monotherapy with EGCG or RK. The synergistic factor (SF) is defined as the quotient of the observed effect and the expected effect. If SF>1, a synergistic effect was exerted by the combined treatment.

Marks after values point to notes of the source that are not given here.

Consider `CC(=O)CCc1ccc(O)cc1` [RK, 4-(4-hydroxyphenyl)-2-butanone], for which, in the assay with C57BLKS/J db/db mice, the “Body weight, Initial” value is listed as 32.5 g and the “Body weight decrease, Week 4” value is recorded as 0.4 g. In addition, in the assay with C57BLKS/J db/db mice (db/db mice), the “Body weight compared to untreated control (in words), after four weeks of treatment” value is listed as “neither EGCG nor RK caused a significant decrease in body weight” and the “Body weight, Week 4” value is given as 38.0 g. For the same compound, the “Body weight compared to control (in words), during the study period” value with C57BLKS/J db/db mice (db/db mice, whole study period) was “did not significantly decrease body weight”. The “Body weight decrease, Week 2” value with C57BLKS/J db/db mice (week 2) is 0.3 g. In addition, the “Body weight, Week 2” value in the assay with C57BLKS/J db/db mice (week 2, db/db mice) was 38.4 g. Moreover, in assay [1], the “Body weight compared to control mice (in words)” value is “significant decrease in body weight”; the “Body weight, Initial” value is on record as 11.5 g; the “Body weight decrease, Week 2” value was found to be 1.6 g; the “Body weight decrease, Week 4” value was 1.5 g. Moreover, in assay [1], the “Body weight, Week 2” value is on record as 19.0* g and the “Body weight, Week 4” value is on record as 22.1* g.

`O=C(O[C@@H]1Cc2c(O)cc(O)cc2O[C@@H]1c1cc(O)c(O)c(O)c1)c1cc(O)c(O)c(O)c1` [EGCG, epigallocatechin gallate]: in the assay with C57BLKS/J db/db mice, the “Body weight, Initial” value amounted to 32.2 g and the “Body weight decrease, Week 4” value came to 0.8 g. Further, in the assay with C57BLKS/J db/db mice (db/db mice), the “Body weight compared to untreated control (in words), after four weeks of treatment” value is listed as “neither EGCG nor RK caused a significant decrease in body weight” and the “Body weight, Week 4” value was determined as 37.7 g. The “Body weight compared to control mice (in words), week 2” value in the assay on C57BLKS/J db/db mice (db/db mice, week 2) is recorded as “significant decrease in body weight”. In addition, the “Body weight decrease, Week 2” value in the assay on C57BLKS/J db/db mice (week 2) came to 3.0 g. Moreover, the “Body weight, Week 2” value in the assay on C57BLKS/J db/db mice (week 2, db/db mice) is 35.7* g. Besides, in assay [1], the “Body weight compared to control mice (in words)” value is recorded as “significant decrease in body weight”; the “Body weight, Initial” value is on record as 11.4 g; the “Body weight decrease, Week 2” value is recorded as 2.7 g; the “Body weight decrease, Week 4” value is 2.2 g. In addition, in assay [1], the “Body weight, Week 2” value is 17.7* g and the “Body weight, Week 4” value is given as 21.4* g.
